The results in this text go back to ChEMBL document CHEMBL1201862, “PubChem BioAssay data set” (2004).

Assay in all cases: NCI-60 cell line screen, 48 h
Assay [1] has as its system K562.
Assay [2] has as its system CAKI-1.
The test system of assay [3] is DMS-114.
The test system of assay [4] is HL-60.
The test system of assay [5] is HCT-116.
Assay [6] has as its system SF-539.
Assay [7] deals with DLD-1.
Assay [8] deals with NCI-H226.
The test system of assay [9] is MCF7.
Assay [10] has as its system NCI/ADR-RES.
Assay [11] concerns RPMI-8226.
Assay [12] deals with M19-MEL.
The subject of assay [13] is A549.
The test system of assay [14] is OVCAR-4.
The subject of assay [15] is MDA-MB-231.
Assay [16] relates to TK-10.
The test system of assay [17] is Hs-578T.
Assay [18] concerns SR.
Assay [19] has as its system M14.
For assay [20], the system named is SNB-78.

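Method: 48-hour compound exposure of cells in 96-well plates, five concentrations, linear interpolation of endpoints. GI50 = concentration required for 50% inhibition of growth.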 Active and inactive are the calls of the source. Cut-off read from the data, not from the text of the source: active = GI50 up to about 1.1 µM and inactive = higher. Where only a bound is given, the exact number is not on record here.

As to `Cc1ccc(N(O)C(C)(C)C)cc1`, the GI50 is > 100 µM (inactive) in [1]; > 100 µM (inactive) in assay [2]; > 100 µM (inactive) in [3]; > 78.3 µM (inactive) in assay [4]; > 100 µM (inactive) in assay [5]; > 100 µM (inactive) in assay [6]. Also, the GI50 in assay [7], in assay [8], in assay [9], in assay [10], in assay [11] and in [12] was > 100 µM (inactive) each time. In addition, the GI50 in assay [13] and in [14] was > 100 µM (inactive) throughout.

Consider `Cc1ccc(C(=O)C2CC3(CCC2(O)c2ccc(C)cc2)CC(=O)Nc2ccccc2C3=O)cc1` (stereo not drawn), for which the GI50 was > 100 µM (inactive) in assay [2]; > 100 µM (inactive) in assay [15]; > 100 µM (inactive) in assay [16]; 10.5 µM (inactive) in assay [4]; 41.1 µM (inactive) in assay [17]; 62.7 µM (inactive) in [5]. Also, the GI50 in assay [6] is > 100 µM (inactive); in [18] it was > 100 µM (inactive); in [8], > 100 µM (inactive); in assay [9], 7.6 µM (inactive); in [10], > 100 µM (inactive); in [19], 46.5 µM (inactive). In assay [13], the GI50 was > 100 µM (inactive).

Consider `COc1nc(-c2cn(S(=O)(=O)c3ccc(C)cc3)c3ccc(Br)cc23)cc(C(F)(F)F)c1C#N`, for which the GI50 in assay [1] was 27.8 µM (inactive); in assay [2], 45.2 µM (inactive); in assay [4], 86.7 µM (inactive); in [6], 34.9 µM (inactive); in assay [8], 18 µM (inactive); in assay [9] it was 50.4 µM (inactive). The GI50 was 71.8 µM (inactive) in assay [10], 14.9 µM (inactive) in assay [11], > 100 µM (inactive) in [13] and 41.4 µM (inactive) in assay [14].

For `CC1CN=C(Nc2cccc(C(F)(F)F)c2)S1` (stereo not drawn), the GI50 was 30.4 µM (inactive) in assay [1]; 28.1 µM (inactive) in assay [15]; 84.5 µM (inactive) in [16]; 20.7 µM (inactive) in assay [4]; 66.2 µM (inactive) in [17]; 41.7 µM (inactive) in assay [5]. Further, the GI50 was > 100 µM (inactive) in assay [6]; 21.7 µM (inactive) in assay [18]; 79.3 µM (inactive) in assay [8]; 44.7 µM (inactive) in assay [9]; 23.4 µM (inactive) in assay [11]; > 100 µM (inactive) in assay [19].

Consider `CC(=O)Nc1ccc(C(=O)NN2C(=O)C(Cl)C2/C=C/c2ccccc2)cc1` (stereo not drawn), for which the GI50 in [1], in assay [16], in assay [4], in assay [5], in assay [6] and in assay [18] was > 100 µM (inactive) each time. For the same compound, the GI50 in assay [7], in assay [8], in [11], in [12] and in assay [13] was > 100 µM (inactive) in each case.

As to `Nc1nc(=O)n(CC(O)CO)s1` (stereo not drawn), the GI50 in assay [1], in assay [3], in assay [16], in assay [4], in [5] and in assay [6] was > 100 µM (inactive) each time. Moreover, the GI50 in assay [18], in [7], in assay [8], in [11], in assay [19] and in assay [12] was > 100 µM (inactive) throughout. The GI50 in [13] and in [14] was > 100 µM (inactive) throughout.

For the compound `COc1ccc(N2C(=O)CSC2c2c[nH]c3ccccc23)cc1` (stereo not drawn), the GI50 in [1] was 26.2 µM (inactive); in assay [15], 72.9 µM (inactive); in assay [16] it was 59.8 µM (inactive); in assay [4] it was 23.6 µM (inactive); in assay [5] it was 59.2 µM (inactive); in assay [18], 43 µM (inactive). Further, the GI50 in assay [9] was 70.1 µM (inactive); in assay [19], > 100 µM (inactive); in assay [14] it was > 100 µM (inactive).

On to `S=C(N/N=C(/c1ccccc1)c1ccccn1)Nc1cccc(Cl)c1`, for which the GI50 in assay [2] is 0.701 µM (active); in [15], < 0.0202 µM (active); in assay [16], 0.714 µM (active); in assay [4], < 0.0277 µM (active); in assay [17], 1.52 µM (inactive); in [5], < 0.0189 µM (active). Further, the GI50 in assay [6] was 1.48 µM (inactive); in assay [18], < 0.026 µM (active); in assay [8], 0.508 µM (active); in assay [9], 0.091 µM (active); in assay [10], 0.0432 µM (active); in [11] it was < 0.0385 µM (active). Also, the GI50 is 0.0596 µM (active) in assay [19], 1.55 µM (inactive) in [13] and 0.0524 µM (active) in assay [14].

Regarding `Nc1ncnc2c1sc1nc3ccccc3n12`, the GI50 was > 100 µM (inactive) in [1]; 33.7 µM (inactive) in assay [2]; 44.8 µM (inactive) in [15]; > 100 µM (inactive) in [16]; 12.2 µM (inactive) in [17]; 20.4 µM (inactive) in assay [6]. Also, the GI50 was 51.1 µM (inactive) in assay [8]; 23 µM (inactive) in assay [9]; > 83 µM (inactive) in assay [10]; > 91.4 µM (inactive) in assay [11]; > 84.1 µM (inactive) in assay [19]; > 49.1 µM (inactive) in assay [13]. For the same compound, the GI50 in [14] was > 100 µM (inactive).

Take `Cc1[nH]c(=O)nc(S)c1C(=O)NC1C2CCCCC2NC2CCCCC21` (stereo not drawn): the GI50 in assay [1] is 4.57 µM (inactive); in assay [2], 17.2 µM (inactive); in [15] it was 14.9 µM (inactive); in assay [16] it was 16.5 µM (inactive); in assay [4], > 100 µM (inactive); in assay [17], 23.4 µM (inactive). For the same compound, the GI50 in assay [5] was 15.1 µM (inactive); in assay [18] it was 28.6 µM (inactive); in assay [8], 17.3 µM (inactive); in assay [9], 17 µM (inactive); in [10] it was 17.7 µM (inactive); in assay [11], 26.4 µM (inactive). In addition, the GI50 in assay [19] was 14.2 µM (inactive); in assay [14], 18.3 µM (inactive).

Take `N=C(N)NS(=O)(=O)c1ccc(Nc2c3ccccc3nc3c(C(=O)N4CCN(CCO)CC4)ccc(Cl)c23)cc1`: the GI50 in assay [1], in assay [2], in assay [3], in assay [16], in assay [4] and in [5] was > 100 µM (inactive) throughout. Also, the GI50 in assay [6], in assay [7], in [8], in [11], in [19] and in [12] was > 100 µM (inactive) in each case. For the same compound, the GI50 in assay [13] is > 100 µM (inactive); in assay [20], 30.5 µM (inactive); in assay [14] it was > 100 µM (inactive).

`Cc1cnc(SCCN2CCN(C)CC2)nc1-c1cc2ccccc2s1`: the GI50 in [2] is 1.51 µM (inactive); in assay [3] it was 7.66 µM (inactive); in assay [16], 17.4 µM (inactive); in assay [5], 11.4 µM (inactive); in [6], 12.6 µM (inactive); in assay [18], 2.48 µM (inactive). In addition, the GI50 was 12.6 µM (inactive) in assay [7]; 11.9 µM (inactive) in [8]; 13.2 µM (inactive) in assay [19]; 4.62 µM (inactive) in [13]; 16.7 µM (inactive) in assay [20]; 16.7 µM (inactive) in assay [14].

Take `O=C(N/N=C\C(F)(F)F)c1ccncc1`: the GI50 is 7.62 µM (inactive) in assay [1]; 42.8 µM (inactive) in assay [2]; 22.8 µM (inactive) in [16]; > 100 µM (inactive) in assay [4]; 38.6 µM (inactive) in assay [17]; 35.2 µM (inactive) in assay [18]. Further, the GI50 in assay [8] is 62.2 µM (inactive); in assay [9] it was 86.3 µM (inactive); in assay [10], > 100 µM (inactive); in [11], > 100 µM (inactive); in assay [19] it was 26 µM (inactive); in [14], > 100 µM (inactive).

Consider `COc1cc(/N=N\c2cccc(S(=O)(=O)O)c2)c(C)cc1/N=N\c1ccc(/C=C/c2ccc(/N=[N+](/[O-])c3ccc(/C=C/c4ccc(/N=N\c5cc(C)c(/N=N/c6cccc(S(=O)(=O)O)c6)cc5OC)cc4)c(S(=O)(=O)O)c3)cc2S(=O)(=O)O)cc1`, for which the GI50 in assay [1], in assay [3], in [4], in [5], in [6] and in assay [7] was > 100 µM (inactive) throughout. For the same compound, the GI50 in assay [8] is > 100 µM (inactive); in assay [9], > 100 µM (inactive); in [10], > 100 µM (inactive); in assay [12], > 100 µM (inactive); in [13], > 100 µM (inactive); in assay [14], > 66.7 µM (inactive).

As for `CCN(CC)c1ccc2cc(C(=O)Nc3ccc4[nH]c(C(=O)N5C[C@@H](CCl)c6c5cc(OC(=O)Nc5ccccc5)c5[nH]cc(C)c65)cc4c3)oc2c1` [CARZELESIN], the GI50 in assay [1] was 0.000556 µM (active); in assay [2], 5.28e-05 µM (active); in [3] it was 0.000201 µM (active); in assay [4] it was 0.000282 µM (active); in [5], 152 µM (inactive); in assay [6], 318 µM (inactive). Besides, the GI50 in assay [9] is 9.25e-05 µM (active); in assay [11], 0.000308 µM (active); in [12], 0.000316 µM (active); in [13], 0.000162 µM (active); in assay [20] it was 0.000995 µM (active); in [14], 0.000426 µM (active).
